This note sets out measurements from patent US10344017B2, “Pyrrolcarboxamide derivatives for the inhibition of ERK5” (CANCER RESEARCH TECHNOLOGY LIMITED, priority 2014, dated 2019).

This assay concerns the target T1, ERK5 (Homo sapiens, UniProt Q13164).
T1 construct: made in house
The assay is described as follows: ERK5 IMAP assay (fluorescence polarisation). The format is biochemical. The following applies: average (e.g. geometric mean) where more than one data point; read-out: ERK5 IC50. The protocol:
The assay buffer was prepared using 0.01% Tween®-20 5× stock, supplied as part of IMAP™ FP Progressive Binding System Kit (Molecular Devices R7436) and diluted to 1× using miliQ H2O. 1 μL of a 1M DTT stock was added for every 1 mL of 1× assay buffer to give a final concentration of 1 mM DTT.
ERK5 was expressed and purified at CRT-DL by Leon Pang and Sue Young. Aliquots were stored at −80° C. The ERK5 working solution was used at a […] final dilution in assay buffer. […] For 1 plate, […] of ERK5 stock was added to 2262 μL of 1× assay buffer.
To prepare the IMAP™ binding solution for one plate 20.5 μL of IMAP™ binding reagent stock, 1476 μL of 1× binding buffer A (60%), and 984 μL of binding buffer B (40%) (IMAP™ FP Progressive screening express kit (Molecular Devices R8127) was added to 9819.5 μL of milliQ H2O.
1 μL of inhibitor (in 60:40 H2O/DMSO) or 60:40 H2O/DMSO (for controls and blanks) were dry-spotted into the relevant wells of a 384-well assay plate using the MATRIX PlateMate® Plus. 5 μL of ERK5 working solution was added to test and control wells, and 5 μL of 1× assay buffer added to blanks; 4 μL of ATP/substrate working solution was added to all wells using a Matrix multichannel pipette. The plate was sealed using DMSO resistant clear seal and incubated for 2 h at 37° C. 1 μL of the kinase reaction mixture from the first plate was dry spotted into a second 384-well assay plate using the MATRIX PlateMate® Plus. 9 μL of assay buffer was added, followed by 30 μL of IMAP™ binding solution using a multichannel pipette. The plate was incubated at RT in darkness for 2 h. The assay plate was then read on an Analyst HT plate reader (Molecular Devices) using the settings described below: […]
For orientation: In fluorescence polarisation assays a small probe gives low polarisation when free and higher when bound to something large.

Broadly, the IC50 is the concentration needed to halve the response being measured.

Each structure is given as a SMILES string.

T1 sequence (Q13164 whole entry): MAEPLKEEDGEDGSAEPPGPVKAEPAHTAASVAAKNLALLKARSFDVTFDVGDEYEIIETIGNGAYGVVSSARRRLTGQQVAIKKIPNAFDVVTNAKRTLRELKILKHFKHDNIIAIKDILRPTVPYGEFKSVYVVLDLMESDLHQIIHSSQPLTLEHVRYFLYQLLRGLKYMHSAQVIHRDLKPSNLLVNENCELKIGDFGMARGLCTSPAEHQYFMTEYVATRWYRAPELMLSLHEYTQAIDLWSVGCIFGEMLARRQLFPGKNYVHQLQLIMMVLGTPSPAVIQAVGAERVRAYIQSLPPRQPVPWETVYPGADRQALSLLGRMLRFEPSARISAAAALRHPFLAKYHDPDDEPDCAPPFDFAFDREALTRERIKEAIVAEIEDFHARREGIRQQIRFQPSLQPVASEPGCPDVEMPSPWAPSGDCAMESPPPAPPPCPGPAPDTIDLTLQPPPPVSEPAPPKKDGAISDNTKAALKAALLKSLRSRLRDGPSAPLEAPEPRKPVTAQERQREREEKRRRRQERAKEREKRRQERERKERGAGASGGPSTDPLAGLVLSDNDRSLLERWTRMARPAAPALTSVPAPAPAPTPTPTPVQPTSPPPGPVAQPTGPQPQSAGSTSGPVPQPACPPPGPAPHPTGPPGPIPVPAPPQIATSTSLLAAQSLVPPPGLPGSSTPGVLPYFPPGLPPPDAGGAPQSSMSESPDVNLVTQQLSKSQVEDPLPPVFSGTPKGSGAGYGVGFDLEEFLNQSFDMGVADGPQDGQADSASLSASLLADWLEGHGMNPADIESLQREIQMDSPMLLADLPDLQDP

As to `O=C(Nc1cccnc1)c1cc(C(=O)c2c(F)ccc(F)c2F)c[nH]1` [Example 206, N-(Pyridin-3-yl)-4-(2,3,6-trifluorobenzoyl)-1H-pyrrole-2-carboxamide], the IC50 stood at 400 nM.

Regarding `COCCn1cc(NC(=O)c2cc(C(=O)c3c(Cl)ccc(Cl)c3F)c[nH]2)cn1` [Example 47, 4-(3,6-Dichloro-2-fluorobenzoyl)-N-(1-(2-methoxyethyl)-1H-pyrazol-4-yl)-1H-pyrrole-2-carboxamide], the half-maximal inhibitory concentration (IC50) stood at 75.2 nM. Consider `Cn1cc(NC(=O)c2cc(C(=O)c3c(Cl)ccc(O)c3F)c[nH]2)cn1` [Example 255, 4-(6-Chloro-2-fluoro-3-hydroxybenzoyl)-N-(1-methyl-1H-pyrazol-4-yl)-1H-pyrrole-2-carboxamide], for which the IC50 amounted to 736 nM. As for `Cc1ncccc1NC(=O)c1cc(C(=O)c2c(F)cccc2Br)c[nH]1` [Example 149, 4-(2-Bromo-6-fluorobenzoyl)-N-(2-methylpyridin-3-yl)-1H-pyrrole-2-carboxamide], the IC50 came to 2390 nM. Then `CN1CCC(N(C)c2ncc(NC(=O)c3cc(C(=O)c4c(Cl)ccc(Cl)c4F)c[nH]3)cn2)CC1` [Example 105, 4-(3,6-Dichloro-2-fluorobenzoyl)-N-(2-(methyl(1-methylpiperidin-4-yl)amino)pyrimidin-5-yl)-1H-pyrrole-2-carboxamide], with 20.7 nM. Then `COc1ccc(F)c(C(=O)c2c[nH]c(C(=O)Nc3cccnc3)c2)c1Cl` [Example 73, 4-(2-chloro-6-fluoro-3-methoxybenzoyl)-N-(pyridin-3-yl)-1H-pyrrole-2-carboxamide], with 255 nM.

Regarding `O=C(NC1CCNC1)c1cc(C(=O)c2c(F)cccc2F)c[nH]1` (stereo not drawn) [Example 125, 4-(2,6-Difluorobenzoyl)-N-(pyrrolidin-3-yl)-1H-pyrrole-2-carboxamide], the half-maximal inhibitory concentration (IC50) amounted to 31000 nM. For `Cc1ccc(F)c(C(=O)c2c[nH]c(C(=O)Nc3cccnc3)c2)c1Cl` [Example 175, 4-(2-Chloro-6-fluoro-3-methylbenzoyl)-N-(pyridin-3-yl)-1H-pyrrole-2-carboxamide], the IC50 is 649 nM. In the case of `Cc1cc(NC(=O)c2cc(C(=O)c3c(F)cccc3Br)c[nH]2)nc(C)n1` [Example 143, 4-(2-Bromo-6-fluorobenzoyl)-N-(2,6-dimethylpyrimidin-4-yl)-1H-pyrrole-2-carboxamide], the IC50 turned out to be 4950 nM. In the case of `O=C(Nc1cccnc1)c1cc(C(=O)c2c(Cl)ccc(OC3CCOCC3)c2F)c[nH]1` [Example 267, 4-(6-Chloro-2-fluoro-3-((tetrahydro-2H-pyran-4-yl)oxy)benzoyl)-N-(pyridin-3-yl)-1H-pyrrole-2-carboxamide], the IC50 is 1740 nM. Turning to `CNCc1ccc(F)c(C(=O)c2c[nH]c(C(=O)Nc3cccnc3)c2)c1F` [Example 274, 4-(2,6-difluoro-3-((methylamino)methyl)benzoyl)-N-(pyridin-3-yl)-1H-pyrrole-2-carboxamide], the 50% inhibitory concentration (IC50) is 3640 nM. In the case of `CN1CCC(NC(=O)c2cc(C(=O)c3cc(F)ccc3F)c[nH]2)CC1` [Example 227, 4-(2,5-Difluorobenzoyl)-N-(1-methylpiperidin-4-yl)-1H-pyrrole-2-carboxamide], the IC50 was 6160 nM. Take `COCCOc1ccc(Cl)c(C(=O)c2c[nH]c(C(=O)Nc3cccnc3)c2)c1F` [Example 258, 4-(6-Chloro-2-fluoro-3-(2-methoxyelhoxy)benzoyl)-N-(pyridin-3-yl)-1H-pyrrole-2-carboxamide]: the concentration for half-maximal inhibition (IC50) was 653 nM. Turning to `O=C(Nc1cccnc1)c1cc(C(=O)c2c(Cl)ccc(OC3CCOC3)c2F)c[nH]1` (stereo not drawn) [Example 259, 4-(6-Chloro-2-fluoro-3-((tetrahydrofuran-3-yl)oxy)benzoyl)-N-(pyridin-3-yl)-1H-pyrrole-2-carboxamide], the IC50 was 483 nM.

As to `O=C(Nc1cnc(N2CCN(C3CC3)CC2)nc1)c1cc(C(=O)c2c(Cl)ccc(Cl)c2F)c[nH]1` [Example 17, N-(2-(4-cyclopropylpiperazin-1-yl)pyrimidin-5-yl)-4-(3,6-dichloro-2-fluorobenzoyl)-1H-pyrrole-2-carboxamide], the half-inhibitory concentration (IC50) is 1750 nM.
